Results: PubChem BioAssay AID2060898 (Molecular Pharmacology Branch, DTP, NCI, 2025)
pIC50: −log10 of the molar value.

Test system: 616215-338-R-J1-PDC complex spheroid viability
Test: Anticancer human tumor 616215-338-R-J1-PDC patient-derived colon adenocarcinoma cell line growth inhibition [RAS]
Details: for pIC50: curve of first compound; for viability, T/C: stronger effect = lower value; active = viability on the fitted dose curve at most 10% of control; inactive = the rest
From the text: RAS pathway inhibitors in Combinations in Complex Spheroids
A high-throughput screen of multi-cell type tumor spheroids was designed to identify active combinations of RAS pathway inhibitors and targeted small molecules. Complex spheroids include a stromal component modeled by human endothelial cells (HUVEC) and fibroblasts modeled by human mesenchymal stem cells (MSCs). The concentration ranges selected for each drug and investigational agent were based upon clinically achievable concentrations if the clinical Cmax of the agent was known.
Compounds. The drugs and investigational agents: abemaciclib (NSC768073), cobimetinib (NSC768068), divarasib (GDC6063, NSC841802), docetaxel (NSC628503), GDC-1971 (RLY-1971, NSC841576), gemcitabine (NSC613327), inavolisib (NSC800729), ipatasertib (NSC767898), KB-0742 (NSC834161), MRTX-1133 (NSC836407), osimertinib (NSC779217), RMC-4630 (NSC839698), RMC-6236 (NSC851965), RMC-6291 (NSC852671), Ro-3306 (NSC812927), sapanisertib (NSC764658), SN-38 (NSC673596), staurosporine (NSC755774), SY5609 (NSC837396), and tovorafenib (DAY101, NSC766906), were obtained from the National Cancer Institute (NCI) Developmental Therapeutics Program Chemical Repository. The FDA-approved anticancer drug set is available from the NCI Developmental Therapeutics Program. […] The stock solutions were prepared in dimethyl sulfoxide (DMSO, Sigma-Aldrich, St. Louis, MO, cat. D2650) at 800-fold the tested concentration and stored at -70 degrees C prior to their use. All drugs and investigational agents were tested over a range starting from a high concentration at or near the clinical Cmax and decreasing in half-log increments. If the clinical Cmax for an agent had not been determined, the highest concentration tested was 10 microM.
Cell Culture. All cells were maintained in an incubator at 37 degrees C and 5% CO2 with 95% humidity. The PDC lines were cultured according to standard operating procedures established by the NCI PDMR. All PDCs were thawed and cultured in Matrigel-coated flasks prepared with a working solution of 1X Ham's F-12 nutrient mix, without supplementation (Invitrogen, Waltham, MA, cat. 11765054), 100 U/mL penicillin-streptomycin (Invitrogen, cat. 15140122), and 2.5% Matrigel (Corning Inc., Corning, NY, cat. 354248) for the first three passages. The 362531-283-R-J2-PDC and 782815-120-R-J1-PDC lines were cultured in 6C/Colon 1B media, which includes advanced DMEM/F-12 (Thermo Fisher Scientific, cat. 12634028), 10 mM HEPES (Thermo Fisher Scientific, cat. 15630080), 1X GlutaMAX supplement (Thermo Fisher Scientific, cat. 35050061), 0.1 mg/mL primocin (InvivoGen, San Diego, CA, cat. ant-pm-2), 10% defined fetal bovine serum, heat inactivated (HyClone Laboratories Inc., Logan, UT, cat. SH30070.03HI), 50% L-WRN conditioned media (ATCC, cat. CRL-3276), 1.25 mM N-Acetyl-L-cysteine (Sigma-Aldrich, cat. A9165), 10 mM nicotinamide (Sigma-Aldrich, cat. N0636), 1X B-27 supplement (Thermo Fisher Scientific, cat. 17504044), 1X N-2 supplement (Thermo Fisher Scientific, cat. 17502048), 50 ng/mL human EGF (Thermo Fisher Scientific, cat. PHG0311), and 10 microM Y-27632 dihydrochloride (Tocris Bioscience, cat. 1254). The K12877-001-R-J1-PDC line was cultured in 6I media, which includes all 6C/Colon 1B media plus 10 ng/mL human FGF-10 (PeproTech, cat. 100-26), 1 ng/mL human FGF-2 (PeproTech, cat. 100-18B), 1 µM prostaglandin E2 (Tocris Bioscience, cat. 2296), […] hydrocortisone (Sigma-Aldrich, cat. H4001), and […] bovine insulin (Sigma-Aldrich, cat. I6634). The K86415-001-R-J1-PDC line was cultured in 6D media, which includes all 6C/Colon 1B media components minus the L-WRN conditioned media. The 485176-168-R4-J1-PDC was cultured in PANC media, which includes all 6C/Colon 1B media plus 100 ng/mL human FGF-10 (PeproTech, cat. 100-26), 500 nM SB-431542 (Selleckchem, cat. S1067), and 10 nM gastrin (Tocris Bioscience, cat. 3006). […]

[1] = second compound 0.0316 µM, first compound 0.0316 µM
[2] = second compound 0.0316 µM, first compound 0.1 µM
[3] = second compound 0.0316 µM, first compound 0.316 µM
[4] = second compound 0.0316 µM, first compound 1 µM
[5] = second compound 0.0316 µM, first compound 3.16 µM
[6] = second compound 0.0316 µM, first compound 10 µM
[7] = second compound 0.1 µM, first compound 0.0316 µM
[8] = second compound 0.1 µM, first compound 0.1 µM
[9] = second compound 0.1 µM, first compound 0.316 µM
[10] = second compound 0.1 µM, first compound 1 µM
[11] = second compound 0.1 µM, first compound 3.16 µM
[12] = second compound 0.1 µM, first compound 10 µM
[13] = second compound 0.316 µM, first compound 0.0316 µM
[14] = second compound 0.316 µM, first compound 0.1 µM
[15] = second compound 0.316 µM, first compound 0.316 µM
[16] = second compound 0.316 µM, first compound 1 µM
[17] = second compound 0.316 µM, first compound 3.16 µM
[18] = second compound 0.316 µM, first compound 10 µM
[19] = second compound 1 µM, first compound 0.0316 µM
[20] = second compound 1 µM, first compound 0.1 µM
[21] = second compound 1 µM, first compound 0.316 µM
[22] = second compound 1 µM, first compound 1 µM
[23] = second compound 1 µM, first compound 3.16 µM
[24] = second compound 1 µM, first compound 10 µM
[25] = second compound 3.16 µM, first compound 0.0316 µM
[26] = second compound 3.16 µM, first compound 0.1 µM
[27] = second compound 3.16 µM, first compound 0.316 µM
[28] = second compound 3.16 µM, first compound 1 µM
[29] = second compound 3.16 µM, first compound 3.16 µM
[30] = second compound 3.16 µM, first compound 10 µM
[31] = second compound 10 µM, first compound 0.0316 µM
[32] = second compound 10 µM, first compound 0.1 µM
[33] = second compound 10 µM, first compound 0.316 µM
[34] = second compound 10 µM, first compound 1 µM
[35] = second compound 10 µM, first compound 3.16 µM
[36] = second compound 10 µM, first compound 10 µM
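Also: spheroids exposed to agents for seven days before viability readout.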

Cc1nc(N2CCC3(CC2)COC(C)C3N)c(CO)nc1Sc1ccnc(N)c1Cl (centres undefined) + C#Cc1c(F)ccc2cc(O)cc(-c3ncc4c(N5CC6CCC(C5)N6)nc(OCC56CCCN5CC(F)C6)nc4c3F)c12
inactive: viability, T/C [1] 99.5% | viability, T/C [2] 108% | viability, T/C [3] 116% | viability, T/C [4] 95.2% | viability, T/C [5] 88.5% | viability, T/C [6] 67.8% | viability, T/C [7] 101% | viability, T/C [8] 113% | viability, T/C [9] 104% | viability, T/C [10] 79.6% | viability, T/C [11] 68% | viability, T/C [12] 63.1% | viability, T/C [13] 113% | viability, T/C [14] 116% | viability, T/C [15] 98.3% | viability, T/C [16] 75.3% | viability, T/C [17] 57.7% | viability, T/C [18] 42.1% | viability, T/C [19] 98.2% | viability, T/C [20] 97.2% | viability, T/C [21] 52.7% | viability, T/C [22] 48.5% | viability, T/C [23] 48.2% | viability, T/C [24] 43.7% | viability, T/C [25] 88.8% | viability, T/C [26] 67.9% | viability, T/C [27] 49.2% | viability, T/C [28] 49.9% | viability, T/C [29] 41.2% | viability, T/C [30] 54.1% | viability, T/C [31] 52.2% | viability, T/C [32] 61.4% | viability, T/C [33] 43.8% | viability, T/C [34] 37% | viability, T/C [35] 34.6% | viability, T/C [36] 33%
6.52: pIC50 (second compound 3.16 µM)
5.28: pIC50 (second compound 0.316 µM)
6.74: pIC50 (second compound 10 µM)
< 5.00: pIC50 (second compound 0.0316 µM) | pIC50 (second compound 0.1 µM)
6.27: pIC50 (second compound 1 µM)

NC1c2ccccc2OC12CCN(c1cnc3c(N4CCCc5ncccc54)n[nH]c3n1)CC2 (centres undefined) + C#Cc1c(F)ccc2cc(O)cc(-c3ncc4c(N5CC6CCC(C5)N6)nc(OCC56CCCN5CC(F)C6)nc4c3F)c12
> 7.50: pIC50 (second compound 10 µM)
5.71: pIC50 (second compound 0.316 µM)
5.33: pIC50 (second compound 0.0316 µM) | pIC50 (second compound 0.1 µM)
7.46: pIC50 (second compound 3.16 µM)
inactive: viability, T/C [1] 128% | viability, T/C [2] 112% | viability, T/C [3] 75.9% | viability, T/C [4] 81.6% | viability, T/C [5] 67.6% | viability, T/C [6] 29.6% | viability, T/C [7] 123% | viability, T/C [8] 105% | viability, T/C [9] 88.5% | viability, T/C [10] 61.8% | viability, T/C [11] 56.6% | viability, T/C [12] 43.4% | viability, T/C [13] 114% | viability, T/C [14] 84.4% | viability, T/C [15] 63.2% | viability, T/C [16] 55.1% | viability, T/C [17] 49.2% | viability, T/C [18] 32.4% | viability, T/C [19] 88.6% | viability, T/C [20] 59.5% | viability, T/C [21] 43% | viability, T/C [22] 33.8% | viability, T/C [23] 43% | viability, T/C [24] 26.6% | viability, T/C [25] 50.5% | viability, T/C [26] 44.5% | viability, T/C [27] 50.7% | viability, T/C [28] 39% | viability, T/C [29] 35.6% | viability, T/C [30] 35.7% | viability, T/C [31] 40% | viability, T/C [32] 44.4% | viability, T/C [33] 36.2% | viability, T/C [34] 29.5% | viability, T/C [35] 33.4% | viability, T/C [36] 31.6%
6.70: pIC50 (second compound 1 µM)
